Laboratory results published in PubChem BioAssay (NCI).
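Exposure lasted 48 hours, with cells grown in 96-well plates and compounds tested at five concentrations. The concentration for 50% growth inhibition is given as GI50. TGI denotes the concentration required for complete inhibition of growth.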

How the values were obtained:
Assay in all cases: NCI anticancer screen, dose series, 48 h
786-0 renal = tested on: 786-0 renal
CAKI-1 renal = tested on: CAKI-1 renal
EKVX NSCLC = tested on: EKVX NSCLC
HCC-2998 colon = tested on: HCC-2998 colon
HOP-92 NSCLC = tested on: HOP-92 NSCLC
LOX IMVI melanoma = tested on: LOX IMVI melanoma
OVCAR-5 ovarian = tested on: OVCAR-5 ovarian
SK-MEL-28 melanoma = tested on: SK-MEL-28 melanoma
SK-OV-3 ovarian = tested on: SK-OV-3 ovarian
SR leukemia = tested on: SR leukemia

Row | Structure (SMILES) | TGI (786-0 renal) | TGI (CAKI-1 renal) | TGI (EKVX NSCLC) | TGI (HCC-2998 colon) | TGI (HOP-92 NSCLC) | TGI (LOX IMVI melanoma) | TGI (OVCAR-5 ovarian) | TGI (SK-MEL-28 melanoma) | TGI (SK-OV-3 ovarian) | TGI (SR leukemia) | GI50 (786-0 renal) | GI50 (CAKI-1 renal) | GI50 (EKVX NSCLC) | GI50 (HCC-2998 colon) | GI50 (HOP-92 NSCLC) | GI50 (LOX IMVI melanoma) | GI50 (OVCAR-5 ovarian) | GI50 (SK-MEL-28 melanoma) | GI50 (SK-OV-3 ovarian) | GI50 (SR leukemia)
1 | COc1ccc2c(c1)CC1N(C)CCC13CCCCC23 (stereo not given) | > 100 µM | > 100 µM | > 100 µM | > 100 µM | > 100 µM | > 100 µM | > 100 µM | > 100 µM | > 100 µM | > 100 µM | – | – | – | – | – | – | – | – | – | –
2 | CCN(CC)CCNC(=O)C(Cl)=C1C(Cl)=C(Cl)C(Cl)=C1Cl | 41.7 µM | > 100 µM | > 100 µM | 22.8 µM | 8.62 µM | 4.53 µM | 27.8 µM | 7.11 µM | > 100 µM | > 100 µM | 5.07 µM | 2.73 µM | 6.44 µM | 8.08 µM | 2.37 µM | 1.83 µM | 4.82 µM | 2.45 µM | 3.21 µM | 3.36 µM
3 | COc1cccc(/C=C2\CCc3ccccc3C2=O)c1 | 39.9 µM | 36.4 µM | 29.3 µM | 30.6 µM | 35.4 µM | 36.8 µM | 42.7 µM | 31 µM | 75.6 µM | 15.1 µM | 18.2 µM | 11.3 µM | 13.9 µM | 15.8 µM | 13.3 µM | 12.9 µM | 17.6 µM | 15.5 µM | 20.7 µM | 3.1 µM
4 | CCN(CC)CC(O)c1cc(-c2ccc(Cl)cc2)nc2cc(Cl)ccc12 (stereo not given) | 3.41 µM | 2.64 µM | 8.04 µM | 3.1 µM | 7.38 µM | 2.51 µM | 5.58 µM | 3.21 µM | 12 µM | 3.52 µM | 1.9 µM | 1.21 µM | 1.76 µM | 1.67 µM | 1.83 µM | 1.24 µM | 2.11 µM | 1.76 µM | 3.44 µM | 1.69 µM
5 | O=C(Nc1ccc(Cl)cc1)c1cc2ccccc2cc1OP(=O)(O)O | 13.4 µM | 11.1 µM | 25.2 µM | 29.9 µM | 8.45 µM | 17.5 µM | 42.3 µM | 55.3 µM | 16.9 µM | > 100 µM | 3.59 µM | 1.77 µM | 2.82 µM | 4.19 µM | 2.46 µM | 3.52 µM | 6.51 µM | 4.88 µM | 2.51 µM | 23.7 µM
6 | Nc1nc(Cl)nc2c1ncn2C1OC(CO)C(O)C1O (stereo not given) | > 73.4 µM | > 100 µM | > 100 µM | > 100 µM | > 100 µM | > 100 µM | > 100 µM | > 100 µM | > 100 µM | > 100 µM | 2.57 µM | 4.3 µM | > 96.8 µM | > 21.9 µM | 6.27 µM | 15.2 µM | 86.9 µM | > 100 µM | 7.5 µM | 8.92 µM
7 | N/C(=N\C(N)=N\c1nc2ccccc2s1)c1ccnc(Br)c1 | > 100 µM | > 100 µM | > 100 µM | > 100 µM | > 100 µM | > 100 µM | > 100 µM | > 100 µM | > 100 µM | > 100 µM | 5.88 µM | 3.33 µM | 30.4 µM | 66 µM | 7.02 µM | 4.27 µM | 62.3 µM | 8.7 µM | 5.95 µM | 2.9 µM
8 | COc1ccc2c(c1)C(=O)c1c-2c(OCCN2CCCCC2)nc2ccc(OC)cc12 | 2.59 µM | 2.96 µM | 4.12 µM | 9.24 µM | 19.7 µM | 1.73 µM | 19.7 µM | 12.8 µM | 16.4 µM | 1.25 µM | 1.04 µM | 0.342 µM | 1 µM | 1.23 µM | 2.41 µM | 0.42 µM | 3.74 µM | 3.52 µM | 2.02 µM | 0.235 µM
9 | COc1cc(-c2ccc(=O)oc2C#Cc2ccccc2)cc(OC)c1OC | > 100 µM | > 100 µM | > 100 µM | > 100 µM | 39.2 µM | > 100 µM | > 100 µM | > 100 µM | 92.9 µM | > 100 µM | 32.6 µM | 27.4 µM | 83.4 µM | > 100 µM | 16.1 µM | 1.57 µM | > 100 µM | 26.7 µM | 28.5 µM | 2.4 µM
10 | ClCc1ccc(-c2ccc(Cn3cnc4c(Cl)ncnc43)cc2)cc1 | 2.97 µM | 2.87 µM | 12.9 µM | 2.89 µM | 25.2 µM | 3.01 µM | 6.01 µM | 7.79 µM | 6.14 µM | > 100 µM | 1.62 µM | 1.47 µM | 2.98 µM | 1.44 µM | 2.02 µM | 1.33 µM | 2.31 µM | 2.49 µM | 1.98 µM | 2.51 µM
11 | O=[P+](O)c1cccnc1 | > 100 µM | > 100 µM | > 100 µM | > 100 µM | > 100 µM | > 100 µM | > 100 µM | > 100 µM | > 100 µM | > 100 µM | – | – | – | – | – | – | – | – | – | –
